Measured values taken from patent publication US20220226343A1, “3-AMINO-4-[4-[4 (DIMETHYLCARBAMOYL) PHENYL]-1,4-DIAZEPAN-1-YL]THIENO[2,3-B]PYRIDINE-2-CARBOXAMIDE FOR USE IN CANCER THERAPY AND FORMULATIONS COMPRISING THE SAME” (University of South Carolina, priority 2019, published 2022).
Like-named read-outs stand apart in the source and are kept apart here.

Tests used:
CDK8/19 = assay: NFκB reporter assay in parental 293 reporter cells; format: cell-based
Source text: We have used a cell-based assay to measure the inhibition of CDK8/19 activity by thienopyridine derivatives. This assay, based on the role of CDK8/19 in NFκB-driven transcription (Chen, 2017), measures the effects of CDK8/19 on the expression of firefly luciferase reporter from a NFκB-dependent promoter in 293 cells. Lentiviral vector pHAGE-NFKB-TA-LUC-UBC-dTomato-W (Addgene #49335) was introduced into 293 cells and a clonal cell line showing the strongest induction of luciferase expression upon TNFα treatment was established and used as the reporter cell line. As a control for CDK8/19 dependence of NFκB inhibition, we have also introduced the same reporter construct into 293 cells with CRISPR/CAS9 knockout of both CDK8 and CDK19.
FIG. 2C and Table 1 compares the IC50 values for different thienopyridines measured in the NFκB reporter assay in parental 293-derived reporter cell line to the cell-based activity values measured for the same compounds by Saito (2013) based on their effect on alkaline phosphatase (ALPase), an indicator of differentiation to osteoblasts in the mouse bone marrow stromal cell line ST2. The latter effects are expressed as EC200, a concentration that enhances ALPase activity to 200% of control.

CDC2L5 = target: T1, CDC2L5 (Homo sapiens, UniProt Q14004); assay: KINOMEscan scanMAX; format: binding; conditions: CDC2L5, 2000 nM
T1 construct: purchased DiscoverX (KINOMEscan scanMAX service)
T1 sequence (Q14004 whole entry): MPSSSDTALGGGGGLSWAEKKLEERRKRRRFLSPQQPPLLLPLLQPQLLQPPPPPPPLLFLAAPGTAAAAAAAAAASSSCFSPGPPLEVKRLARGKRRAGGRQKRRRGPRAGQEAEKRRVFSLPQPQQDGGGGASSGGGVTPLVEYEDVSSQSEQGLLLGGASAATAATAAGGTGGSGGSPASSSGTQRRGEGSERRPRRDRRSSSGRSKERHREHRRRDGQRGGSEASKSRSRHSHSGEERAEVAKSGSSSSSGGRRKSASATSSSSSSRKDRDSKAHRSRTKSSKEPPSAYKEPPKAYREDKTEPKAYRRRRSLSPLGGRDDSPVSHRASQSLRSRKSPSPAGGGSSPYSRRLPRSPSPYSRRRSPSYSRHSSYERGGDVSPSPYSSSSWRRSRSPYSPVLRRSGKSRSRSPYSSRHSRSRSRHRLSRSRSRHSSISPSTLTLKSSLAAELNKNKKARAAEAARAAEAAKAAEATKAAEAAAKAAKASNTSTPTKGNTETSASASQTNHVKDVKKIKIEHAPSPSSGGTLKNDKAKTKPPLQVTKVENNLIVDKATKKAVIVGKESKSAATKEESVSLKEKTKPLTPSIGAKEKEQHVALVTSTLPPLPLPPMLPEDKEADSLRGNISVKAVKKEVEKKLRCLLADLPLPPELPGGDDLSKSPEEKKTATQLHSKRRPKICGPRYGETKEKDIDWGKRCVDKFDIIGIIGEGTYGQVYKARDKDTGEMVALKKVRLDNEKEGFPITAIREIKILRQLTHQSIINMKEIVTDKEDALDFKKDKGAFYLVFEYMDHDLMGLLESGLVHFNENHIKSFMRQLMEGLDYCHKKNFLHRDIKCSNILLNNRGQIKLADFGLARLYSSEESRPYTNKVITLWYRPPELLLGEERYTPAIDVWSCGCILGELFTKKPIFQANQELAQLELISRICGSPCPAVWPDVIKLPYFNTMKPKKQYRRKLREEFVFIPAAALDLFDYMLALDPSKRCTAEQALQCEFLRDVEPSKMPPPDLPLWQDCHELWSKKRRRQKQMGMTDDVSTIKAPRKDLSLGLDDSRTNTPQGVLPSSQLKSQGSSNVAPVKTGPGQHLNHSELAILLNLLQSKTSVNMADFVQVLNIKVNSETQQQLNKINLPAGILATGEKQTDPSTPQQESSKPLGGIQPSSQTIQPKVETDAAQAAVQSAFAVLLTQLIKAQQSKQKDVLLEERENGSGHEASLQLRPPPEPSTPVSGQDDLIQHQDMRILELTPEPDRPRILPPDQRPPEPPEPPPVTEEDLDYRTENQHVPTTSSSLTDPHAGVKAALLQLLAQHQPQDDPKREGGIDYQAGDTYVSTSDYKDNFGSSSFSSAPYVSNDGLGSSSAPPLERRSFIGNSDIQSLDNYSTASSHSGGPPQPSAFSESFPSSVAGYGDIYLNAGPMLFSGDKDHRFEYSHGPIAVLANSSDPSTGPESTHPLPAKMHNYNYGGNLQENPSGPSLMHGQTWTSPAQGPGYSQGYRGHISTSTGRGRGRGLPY
Source text: (§1) Nat. Biotechnol. 23, 329-336 (2005).
(§2) Percent Control (% Ctrl).
(§3) % Ctrl=100×(TS−CPOS)/(CNEG−CPOS) (eqn 1)

FLT3(ITD) = assay: KINOMEscan scanMAX; format: binding; conditions: 2000 nM
Source text: as §1, §2, §3

FLT3(ITD, D835V) = assay: KINOMEscan scanMAX; format: binding; conditions: 2000 nM
Source text: as §1, §2, §3

FLT3(ITD, F691L) = assay: KINOMEscan scanMAX; format: binding; conditions: 2000 nM
Source text: as §1, §2, §3

PFCDPK1(P. falciparum) = target: T2, PFCDPK1(P. falciparum) (Plasmodium falciparum, UniProt P62344); assay: KINOMEscan scanMAX; format: binding; conditions: 2000 nM
T2 construct: DNA label (qPCR read-out); purchased DiscoveRx (KINOMEscan scanMAX)
T2 sequence (P62344 whole entry): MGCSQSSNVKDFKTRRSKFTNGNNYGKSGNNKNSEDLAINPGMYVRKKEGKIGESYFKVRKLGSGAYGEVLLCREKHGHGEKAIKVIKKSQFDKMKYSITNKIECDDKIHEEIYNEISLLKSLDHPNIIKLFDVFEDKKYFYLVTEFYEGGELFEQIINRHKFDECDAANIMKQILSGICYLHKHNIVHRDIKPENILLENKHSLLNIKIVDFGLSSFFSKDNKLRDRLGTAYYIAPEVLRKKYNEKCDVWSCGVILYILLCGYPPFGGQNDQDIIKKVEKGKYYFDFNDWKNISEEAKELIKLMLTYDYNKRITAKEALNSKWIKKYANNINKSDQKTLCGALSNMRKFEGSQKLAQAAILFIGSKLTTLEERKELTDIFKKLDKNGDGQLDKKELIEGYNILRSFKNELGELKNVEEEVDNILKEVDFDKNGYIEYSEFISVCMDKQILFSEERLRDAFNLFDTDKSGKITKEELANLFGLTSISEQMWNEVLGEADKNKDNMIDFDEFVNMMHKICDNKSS
Source text: as §1, §2, §3

PFPK5(P. falciparum) = target: T3, PFPK5(P. falciparum) (Plasmodium falciparum, UniProt P61075); assay: KINOMEscan scanMAX; format: binding; conditions: 2000 nM
T3 construct: purchased KINOMEscan (DiscoveRx) scanMAX panel
T3 sequence (P61075 whole entry): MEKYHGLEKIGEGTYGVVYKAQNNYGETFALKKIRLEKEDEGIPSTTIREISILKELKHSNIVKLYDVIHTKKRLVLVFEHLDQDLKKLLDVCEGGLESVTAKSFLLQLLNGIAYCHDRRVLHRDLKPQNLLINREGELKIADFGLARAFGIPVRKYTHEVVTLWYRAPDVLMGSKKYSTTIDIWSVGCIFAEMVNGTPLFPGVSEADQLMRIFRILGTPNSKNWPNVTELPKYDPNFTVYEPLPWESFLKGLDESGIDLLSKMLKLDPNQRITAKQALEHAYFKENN
Source text: as §1, §2, §3

PKNB(M. tuberculosis) = target: T4, PKNB(M. tuberculosis) (Mycobacterium tuberculosis, UniProt P9WI81); assay: KINOMEscan scanMAX; format: binding; conditions: 2000 nM
T4 construct: purchased DiscoveRx (KINOMEscan scanMAX panel)
T4 sequence (P9WI81 whole entry): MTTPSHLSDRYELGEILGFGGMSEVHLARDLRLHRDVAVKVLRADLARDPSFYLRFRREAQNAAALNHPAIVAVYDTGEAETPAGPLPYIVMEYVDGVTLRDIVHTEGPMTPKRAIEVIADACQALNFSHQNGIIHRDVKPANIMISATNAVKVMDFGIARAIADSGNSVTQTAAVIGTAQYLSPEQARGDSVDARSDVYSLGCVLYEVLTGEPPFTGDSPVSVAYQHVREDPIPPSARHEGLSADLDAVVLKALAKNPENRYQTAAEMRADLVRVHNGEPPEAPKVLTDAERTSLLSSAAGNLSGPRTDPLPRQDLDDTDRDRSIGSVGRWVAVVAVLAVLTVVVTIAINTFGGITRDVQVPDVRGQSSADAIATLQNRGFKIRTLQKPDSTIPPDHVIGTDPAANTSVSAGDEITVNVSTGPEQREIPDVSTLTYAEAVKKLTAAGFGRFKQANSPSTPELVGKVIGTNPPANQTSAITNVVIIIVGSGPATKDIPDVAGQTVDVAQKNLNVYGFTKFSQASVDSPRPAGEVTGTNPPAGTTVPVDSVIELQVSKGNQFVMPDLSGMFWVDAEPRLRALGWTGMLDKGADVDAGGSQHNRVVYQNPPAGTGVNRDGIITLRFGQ
Source text: as §1, §2, §3

PRP4 = target: T5, PRP4 (Homo sapiens, UniProt Q13523); assay: KINOMEscan scanMAX; format: binding; conditions: PRP4, 2000 nM
T5 construct: DNA label (qPCR read-out); purchased DiscoverX (KINOMEscan)
T5 sequence (Q13523 whole entry): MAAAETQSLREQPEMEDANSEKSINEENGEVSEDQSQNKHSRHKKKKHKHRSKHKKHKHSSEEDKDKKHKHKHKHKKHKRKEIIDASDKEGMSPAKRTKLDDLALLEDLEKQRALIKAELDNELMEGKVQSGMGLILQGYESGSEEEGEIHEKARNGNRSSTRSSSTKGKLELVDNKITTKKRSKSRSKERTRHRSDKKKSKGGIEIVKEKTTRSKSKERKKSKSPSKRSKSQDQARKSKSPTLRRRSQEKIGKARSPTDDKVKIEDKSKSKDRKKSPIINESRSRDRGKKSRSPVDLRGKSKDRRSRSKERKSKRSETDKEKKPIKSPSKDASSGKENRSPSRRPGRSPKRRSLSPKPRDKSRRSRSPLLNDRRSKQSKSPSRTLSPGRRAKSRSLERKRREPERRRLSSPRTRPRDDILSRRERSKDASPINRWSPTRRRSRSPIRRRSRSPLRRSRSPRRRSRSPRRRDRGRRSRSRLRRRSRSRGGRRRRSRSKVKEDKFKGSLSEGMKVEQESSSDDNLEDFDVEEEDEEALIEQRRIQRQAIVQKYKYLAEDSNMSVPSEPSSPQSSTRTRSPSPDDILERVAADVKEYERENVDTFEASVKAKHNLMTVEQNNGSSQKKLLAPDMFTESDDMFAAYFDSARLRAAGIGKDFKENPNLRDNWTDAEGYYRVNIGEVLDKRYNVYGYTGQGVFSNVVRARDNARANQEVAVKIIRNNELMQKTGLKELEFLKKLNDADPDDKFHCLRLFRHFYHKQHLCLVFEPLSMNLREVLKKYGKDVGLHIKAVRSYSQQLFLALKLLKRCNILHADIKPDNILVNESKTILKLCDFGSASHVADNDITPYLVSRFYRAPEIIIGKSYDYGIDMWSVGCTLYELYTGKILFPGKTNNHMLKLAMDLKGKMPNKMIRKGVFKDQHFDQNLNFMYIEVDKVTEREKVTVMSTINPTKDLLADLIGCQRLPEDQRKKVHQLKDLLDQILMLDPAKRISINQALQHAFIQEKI
Source text: as §1, §2, §3

[1] = tested on: PSA expression in CRPC cell line C4-2; assay: PSA expression in cell culture supernatant of C4-2 cells; format: cell-based; conditions: 96 h; C4-2 culture supernatant, 4-day treatment, FBS-supplemented regular media
Source text: CDK8/19 inhibition decreases the expression of certain androgen-receptor (AR) inducible genes including PSA, the most common marker of prostate cancer, and the growth of castration-refractory prostate cancers (CRPC).

[2] = tested on: 4T1 murine TNBC lung metastasis; assay: 4T1 breast cancer metastasis survival after primary tumor removal; format: in vivo, mouse; conditions: 15u 25 mg/kg oral b.i.d. after removal of the primary 4T1 tumor
Protocol: 4T1 is a murine triple-negative breast cancer (TNBC) cell line, which is highly metastatic to the lungs. […] Parental and CDK8-knockdown 4T1 cells (n=10) were injected orthotopically in the mammary fat pad and the primary tumors were removed 17 days later. Following surgery, all the mice eventually died with lung metastases. […] However, the loss of CDK8 was associated with a strong increase in the survival of mice (FIG. 10C). […]

[3] = Maximum solubility of 15u in individual excipients; format: physicochemical; set-up: key to XRPD Pattern (API = A): API = A
Protocol: The binary mixtures were incubated on a shaker with temperature control either at 25° C. or 40° C. for at least 48 hours. The mixtures were filtered with 0.45 μm filters to separate the solid and liquid portions. PLC was performed on the on the liquid portion to determine the maximum solubility. XRPD was performed on the collected solid to check polymorph change.

[4] = tested on: CRPC cell line 22rv1 xenograft
in vivo = conditions: female, CD-1, mouse, in vivo, po, 30 mg/kg
CSNK1E = CSNK1E (Homo sapiens, UniProt P49674); assay: Kd Elect binding assay (DiscoverX)
Sequence of CSNK1E (P49674 whole entry): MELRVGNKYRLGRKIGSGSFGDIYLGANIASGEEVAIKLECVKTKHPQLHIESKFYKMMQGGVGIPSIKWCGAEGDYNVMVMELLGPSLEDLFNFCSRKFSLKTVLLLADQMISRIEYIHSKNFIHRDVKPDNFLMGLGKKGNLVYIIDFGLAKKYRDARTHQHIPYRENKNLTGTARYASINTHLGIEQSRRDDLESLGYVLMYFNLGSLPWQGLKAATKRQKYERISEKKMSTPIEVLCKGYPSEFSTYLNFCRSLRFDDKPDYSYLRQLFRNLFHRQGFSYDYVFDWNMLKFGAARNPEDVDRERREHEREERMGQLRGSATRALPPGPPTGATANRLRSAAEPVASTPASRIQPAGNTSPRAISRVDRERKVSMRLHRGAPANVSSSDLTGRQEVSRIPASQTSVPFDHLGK

[5] = 50 mg/kg orally daily, castrated male nude mice

CN(C)C(=O)c1ccc(N2CCCN(c3ccnc4sc(C(N)=O)c(N)c34)CC2)cc1 [Compound 15u, 3-amino-4-(4-(4-(dimethylcarbamoyl)phenyl)-1,4-diazepan-1-yl)thieno[2,3-b]pyridine-2-carboxamide]
IC50 (CDK8/19; NFκB Activity Assay as described in Example 1, read-out: Inhibition Potency HEK293-NFkB-Luc Assay): 10.3 nM | IC50 (CDK8/19; parental 293-derived reporter cell line, read-out: NFκB activity Assay IC50): 10 nM | % Ctrl (CDC2L5): 71 % Ctrl | % Ctrl (FLT3(ITD)): 82 % Ctrl | % Ctrl (FLT3(ITD, D835V)): 41 % Ctrl | % Ctrl (FLT3(ITD, F691L)): 95 % Ctrl | % Ctrl (PFCDPK1(P. falciparum)): 94 % Ctrl | % Ctrl (PFPK5(P. falciparum)): 68 % Ctrl | % Ctrl (PKNB(M. tuberculosis)): 100 % Ctrl | % Ctrl (PRP4): 100 % Ctrl | IC50 [1]: 28 nM | mouse survival of the metastatic disease [2]: significantly increased mouse survival | Maximum Solubility ([3]; Capryol 90): 2.9 mg/g | Maximum Solubility ([3]; Crodamol GMCC SS): 5.5 mg/g | Maximum Solubility ([3]; Gelucire 44/14): 3.4 mg/g | Maximum Solubility ([3]; Kolliphor EL): 1.3 mg/g | Maximum Solubility ([3]; Labrafac PG): 0.0 mg/g | Maximum Solubility ([3]; Labrafil M2125CS): 0.4 mg/g | Maximum Solubility ([3]; Labrasol): 5.4 mg/g | Maximum Solubility ([3]; Lecithin): 1.9 mg/g | Maximum Solubility ([3]; Maisine CC): 2.4 mg/g | Maximum Solubility ([3]; Miglyol 812N): 0.0 mg/g | Maximum Solubility ([3]; Oleic Acid): 0.8 mg/g | Maximum Solubility ([3]; Olive Oil): 0.0 mg/g | Maximum Solubility ([3]; PEG 300): 19.8 mg/g | Maximum Solubility ([3]; PEG 400): 11.8 mg/g | Maximum Solubility ([3]; PEG 600): 18.3 mg/g | Maximum Solubility ([3]; Peceol): 2.5 mg/g | Maximum Solubility ([3]; Sesame Oil): 0.0 mg/g | Maximum Solubility ([3]; Span 20): 8.0 mg/g | Maximum Solubility ([3]; Span 80): 1.4 mg/g | Maximum Solubility ([3]; Transcutol HP): 3.4 mg/g | Maximum Solubility ([3]; Tween 80): 1.9 mg/g | Maximum Solubility ([3]; Vitamin E TPGS): 14.6 mg/g | XRPD Pattern (API = A) ([3]; solid collected from Capryol 90): A | XRPD Pattern (API = A) ([3]; solid collected from Crodamol GMCC SS): A | XRPD Pattern (API = A) ([3]; solid collected from Kolliphor EL): A | XRPD Pattern (API = A) ([3]; solid collected from Labrafac PG): A | XRPD Pattern (API = A) ([3]; solid collected from Labrafil M2125CS): A | XRPD Pattern (API = A) ([3]; solid collected from Labrasol): A | XRPD Pattern (API = A) ([3]; solid collected from Lecithin): A | XRPD Pattern (API = A) ([3]; solid collected from Maisine CC): A | XRPD Pattern (API = A) ([3]; solid collected from Miglyol 812N): A | XRPD Pattern (API = A) ([3]; solid collected from Oleic Acid): A | XRPD Pattern (API = A) ([3]; solid collected from Olive Oil): A | XRPD Pattern (API = A) ([3]; solid collected from PEG 300): A | XRPD Pattern (API = A) ([3]; solid collected from PEG 400): A | XRPD Pattern (API = A) ([3]; solid collected from PEG 600): A | XRPD Pattern (API = A) ([3]; solid collected from Peceol): A | XRPD Pattern (API = A) ([3]; solid collected from Sesame Oil): A | XRPD Pattern (API = A) ([3]; solid collected from Span 20): A | XRPD Pattern (API = A) ([3]; solid collected from Span 80): A | XRPD Pattern (API = A) ([3]; solid collected from Tween 80): A | 22rv1 tumor growth over the long term ([4]; 50 mg/kg once a day, 25 mg/kg twice a day, 50 mg/kg twice a day): drastically inhibited 22rv1 tumor growth | 22rv1 xenograft tumor growth [4, 5]: strongly suppressed the tumor growth | adverse effects and mouse body weight [4, 5]: no apparent adverse effects and no diminution of mouse body weight | AUC(0-t) (in vivo): 6600 ng·h/mL | Kd (CSNK1E): 280 nM
